Test results as given in publication PMC4105438, “Novel Benzoxazine-Based Aglycones Block Glucose Uptake In Vivo by Inhibiting Glycosidases” (PLoS ONE, 2014).
Values joined by “and” are separate entries in the source; they are usually repeats but may differ in a detail not shown here. Equal entries are not always repeated.

Legend:
rat intestinal maltase = assay: Intestinal α-glucosidase inhibitory assay, maltose as substrate; format: biochemical; conditions: rat intestinal acetone powder, maltose 37 mM, 30 min
Method: Intestinal α-glucosidase activity was determined by measuring the amount of glucose hydrolyzed from maltose or sucrose. Briefly, rat intestinal acetone powder was homogenized in 0.9% saline and the suspension was centrifuged at 10,000 g for 30 min at 4°C and the supernatant obtained was used as enzyme source. […] After the respective incubation period, reaction was terminated by keeping the samples in boiling water bath for 10 min. The concentration of glucose released from the reaction mixtures was determined by using Glucose oxidase (GOD POD) kit according to the manufacturer’s protocol. Results were expressed as percentage inhibition of intestinal maltase/sucrase activity.

[1] = tested on: overnight fasted Wistar rats; assay: Oral maltose tolerance test; format: in vivo, rat; conditions: acarbose 3 mg/kg oral, maltose 3 g/kg, compared to maltose control
Text: (§1) Adult Wistar rats weighing 150–180 g were collected from the University Central Animal Facility and housed under a controlled environment. All animal experiments were approved by the Institutional Animal Ethical Committee (Order No : MGZ/2620/2011-12 Dated 31-01-2012; UOM/IAEC/18/2011), Department of Studies in Zoology, University of Mysore, Mysore and were in accordance with the guidelines of the Committee for the Purpose of Control and Supervision of Experiments on Animals (CPCSEA).
(§2) The experimental animals were randomly divided into 11 groups each consisting of 5 rats. […] Blood was collected from the tail vein to the tubes containing anticoagulant (2.5% trisodium citrate and 1.37% citric acid in the ratio 1∶5; anti-coagulant: blood) at time point 0 (just before sucrose/maltose administration), and subsequently at 30, 60, 90, 120 and 180 min after substrate (sucrose/maltose) administration. Plasma was separated by centrifuging the samples at 2000 rpm for 10 min and stored at −20°C until analysis. Plasma glucose concentration was determined by using the Glucose oxidase (GOD POD) kit according to the manufacturer’s protocol.

[2] = tested on: overnight fasted Wistar rats; assay: Oral sucrose tolerance test; format: in vivo, rat; conditions: acarbose 3 mg/kg oral, sucrose 3 g/kg, compared to sucrose control
Text: as §1, §2

α-Glucosidase = biological target: T1, α-Glucosidase (Saccharomyces cerevisiae, UniProt P53341); assay: biochemical; conditions: 0–100 µM, pre-incubation 10 min 37°C, pH 6.9; NS = not significant
T1 construct: purchased SRL, Mumbai (India)
T1 sequence (P53341 whole entry): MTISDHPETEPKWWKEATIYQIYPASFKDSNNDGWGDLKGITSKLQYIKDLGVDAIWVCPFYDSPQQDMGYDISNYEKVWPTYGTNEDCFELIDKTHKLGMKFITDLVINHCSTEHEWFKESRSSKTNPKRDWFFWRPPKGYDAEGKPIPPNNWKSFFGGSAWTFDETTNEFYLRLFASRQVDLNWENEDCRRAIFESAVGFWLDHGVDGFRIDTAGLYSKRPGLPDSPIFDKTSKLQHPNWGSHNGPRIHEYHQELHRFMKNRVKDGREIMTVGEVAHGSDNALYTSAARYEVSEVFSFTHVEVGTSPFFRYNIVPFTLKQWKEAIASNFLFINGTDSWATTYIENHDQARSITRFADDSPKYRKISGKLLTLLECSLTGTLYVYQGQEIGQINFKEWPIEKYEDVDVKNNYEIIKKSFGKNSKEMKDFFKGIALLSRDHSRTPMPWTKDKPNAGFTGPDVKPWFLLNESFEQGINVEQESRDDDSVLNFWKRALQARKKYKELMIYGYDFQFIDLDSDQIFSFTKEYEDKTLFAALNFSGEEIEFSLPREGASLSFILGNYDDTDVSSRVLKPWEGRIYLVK
Method: (§3) Porcine pancreatic α-Amylase and Yeast α-Glucosidase were purchased from SRL, Mumbai (India). Glucose oxidase (GOD POD) kit was purchased from Piramal HealthCare Ltd, Mumbai (India). All other chemicals used were of analytical grade and purchased from Sigma Aldrich, St. Louis (USA) and SRL, Mumbai (India). All IR spectra were obtained in KBr disc on a Shimadzu FT-IR 157 Spectrometer. ^1H and ^13C NMR spectra were recorded on a Bruker WH-200 (400 MZ) spectrometer in CDCl3 or DMSO-d6 as solvent, using TMS as an internal standard and chemical shifts are expressed as ppm. Mass spectra were determined on a Shimadzu LC-MS. The elemental analyses were carried out using an Elemental Vario Cube CHNS rapid Analyzer. The progress of the reaction was monitored by TLC pre-coated silica gel G plates.
The α-glucosidase inhibitory activities of synthesized compounds were evaluated using the method developed by Tsujii et al.. Briefly, α-glucosidase was dissolved in phosphate buffer (50 mM, pH 6.9) and pre-treated with various concentrations of 1,3-benzoxazine derivatives (0–100 µM) independently for 10 min at 37°C. The reaction was initiated by the addition of 50 µL of 5 mM p-nitrophenyl- α -D-glucopyranoside solution in phosphate buffer (50 mM, pH 6.9). The enzyme reaction was carried out at 37°C for 30 min. The reaction was terminated by the addition of Na2CO3 (1 M). The enzymatic activity of α-glucosidase was quantified by measuring the absorption at 405 nm using a Varioskan multimode plate reader (Thermo Scientifics, USA). The inhibitory effect of compounds was defined as inhibitory activity (%) = (Abs Control – Abs Compound treated)/Abs Control ×100. Concentration-response assays were used to determine the potency (IC50) of 1,3-benzoxazine derivatives based on the logistic analysis of the concentration-response curve using Microsoft Excel.

[3] = biological target: T2, Porcine pancreatic α-amylase (Sus scrofa, UniProt P00690); assay: α-amylase inhibition assay (starch, DNS reagent); format: biochemical; conditions: 0–100 µM, pre-incubation 10 min 37°C, pH 6.9; NS = not significant
T2 construct: purchased SRL, Mumbai (India)
T2 sequence (P00690 16-511): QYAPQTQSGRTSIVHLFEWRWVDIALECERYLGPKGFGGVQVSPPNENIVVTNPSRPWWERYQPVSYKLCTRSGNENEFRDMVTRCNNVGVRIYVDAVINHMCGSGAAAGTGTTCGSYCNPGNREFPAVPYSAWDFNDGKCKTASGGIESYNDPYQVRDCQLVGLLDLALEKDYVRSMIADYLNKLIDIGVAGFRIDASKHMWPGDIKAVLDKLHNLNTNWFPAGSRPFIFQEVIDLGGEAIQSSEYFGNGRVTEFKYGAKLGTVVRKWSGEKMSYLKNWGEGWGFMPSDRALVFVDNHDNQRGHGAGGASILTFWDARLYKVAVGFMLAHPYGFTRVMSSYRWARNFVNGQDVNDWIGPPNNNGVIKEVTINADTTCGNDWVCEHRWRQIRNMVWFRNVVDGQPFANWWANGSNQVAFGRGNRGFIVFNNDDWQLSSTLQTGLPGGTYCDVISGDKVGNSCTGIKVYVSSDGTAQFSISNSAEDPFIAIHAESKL
Method: as §3, with “All IR spectra were obtained in KBr disc on a Shimadzu FT-IR 157 Spectrometer. ^1H and ^13C NMR spectra were recorded on a Bruker WH-200 (400 MZ) spectrometer in CDCl3 or DMSO-d6 as solvent, using TMS as an internal standard and chemical shifts are expressed as ppm.” left out
The α-amylase inhibition assay was performed according to a previous report. Porcine pancreatic α-amylase (3 units/mL) was dissolved in 0.1 M phosphate buffered saline, pH 6.9. […] The reaction was initiated by adding substrate solution (0.1% starch) to the incubation medium. After 10 min incubation, the reaction was stopped by adding 250 µL dinitrosalicylic (DNS) reagent (1% 3, 5-dinitrosalicylic acid, 0.2% phenol, 0.05% Na2SO3 and 1% NaOH in aqueous solution) to the reaction mixture. The reaction was terminated by keeping the reaction mixture in boiling water bath for 10 min. Thereafter, 250 µL of 40% potassium sodium tartarate solution was added to the mixtures to stabilize the colour. After cooling to room temperature in a cold water bath, the absorbance was recorded at 540 nm using a Varioskan multimode plate reader (Thermo Scientifics, USA). Acrabose was used as positive control. The percentage of inhibition was calculated using Abs Contol – Abs Sample ×100/Abs Control. Where Abs Control was the absorbance without sample, Abs sample was the absorbance of enzyme with compound.

Compound | IC50 (rat intestinal maltase) [µM] | IC50 (α-Glucosidase) | IC50 [3] [µM] | melting point [°C] | plasma glucose concentration [1] | plasma glucose concentration [2]
C[C@H]1O[C@H](O[C@H]2[C@H](O)[C@@H](O)[C@@H](O[C@H]3[C@H](O)[C@@H](O)C(O)O[C@@H]3CO)O[C@@H]2CO)[C@H](O)[C@@H](O)[C@@H]1N[C@H]1C=C(CO)[C@@H](O)[C@H](O)[C@H]1O (some centres unmarked) [Acarbose, reference compound] | 3.5 |  |  |  | significantly reduced the plasma glucose concentration at 30, 60, 90 min time intervals | only significant at 60 and 90 min time points
c1ccc2c(c1)COC(c1c[nH]c3ccccc13)N2 (centres unmarked) [compound 2, 2-(1H-indol-3-yl)-2,4-dihydro-1H-benzo[d][1,3]oxazine] |  | 32 ± 0.2 µM | 59.2 ± 1 |  |  | 
N#Cc1ccccc1-c1ccc(Cn2cc(C3Nc4ccccc4CO3)c3ccccc32)cc1 (centres unmarked) [compound 4] |  | > 100 µM | > 100 |  |  | 
Clc1ccc2c(c1)NC(c1c[nH]c3ccccc13)OC2 (centres unmarked) [compound 8, 7-chloro-2-(1H-indol-3-yl)-2,4-dihydro-1H-benzo[d][1,3]oxazine] |  | 27.7 ± 1 µM | 26.4 ± 0.5 |  |  | 
O=c1c(C2Nc3ccc(Cl)cc3CO2)coc2ccccc12 (centres unmarked) [compound 10, 3-(6-chloro-2,4-dihydro-1H-benzo[d][1,3]oxazin-2-yl)-4H-chromen-4-one] |  | 31.9 ± 0.8 µM | > 100 | 141 to 143 |  | 
Cc1ccc2c(c1)COC(c1c(C)[nH]c3ccccc13)N2 (centres unmarked) [compound 11, 6-methyl-2-(2-methyl-1H-indol-3-yl)-2,4-dihydro-1H-benzo[d][1,3]oxazine] |  | 23.8 ± 0.1 µM | > 100 |  |  | 
Cc1ccc2c(c1)COC(c1coc3ccccc3c1=O)N2 (centres unmarked) [compound 13, 3-(6-methyl-2,4-dihydro-1H-benzo[d][1,3]oxazin-2-yl)-4H-chromen-4-one] |  | > 100 µM | 51 ± 0.3 | 202 to 204 |  | 

Continued, in another order:

IC50 (rat intestinal maltase) [µM] | IC50 (α-Glucosidase) | IC50 [3] [µM] | melting point [°C] | Compound | plasma glucose concentration [1] | plasma glucose concentration [2]
 | 17.1 ± 0.1 µM | 20.4 ± 0.2 | 160 to 162 | Oc1ccc(C2Nc3ccccc3CO2)cc1 (centres unmarked) [compound 1, 4-(2,4-dihydro-1H-benzo[d][1,3]oxazin-2-yl)phenol] |  | 
 | 21.6 ± 0.1 µM | 10.6 ± 0.3 |  | Cc1[nH]c2ccccc2c1C1Nc2ccccc2CO1 (centres unmarked) [compound 3, 2-(2-methyl-1H-indol-3-yl)-2,4-dihydro-1H-benzo[d][1,3]oxazine] |  | 
 | > 100 µM | 23.3 ± 0.5 | 142 to 144 | O=c1c(C2Nc3ccccc3CO2)coc2ccccc12 (centres unmarked) [compound 5, 3-(2,4-dihydro-1H-benzo[d][1,3]oxazin-2-yl)-4H-chromen-4-one] |  | 
 | 16 µM and 16.7 µM | 18.5 ± 0.1 | 80 to 82 | CCCCc1nc(Cl)c(C2Nc3ccccc3CO2)[nH]1 (centres unmarked) [compound 6, 2-(2-butyl-4-chloro-1H-imidazol-5-yl)-2,4-dihydro-1H-benzo[d][1,3]oxazine] |  | 
 | 27.8 ± 0.2 µM | 22.2 ± 0.1 |  | Clc1ccc2c(c1)COC(c1c(-c3ccccc3)[nH]c3ccccc13)N2 (centres unmarked) [compound 9, 6-chloro-2-(2-phenyl-1H-indol-3-yl)-2,4-dihydro-1H-benzo[d][1,3]oxazine] |  | 
 | 20.5 ± 0.5 µM | 17.6 ± 0.3 |  | Cc1ccc2c(c1)COC(c1c(-c3ccccc3)[nH]c3ccccc13)N2 (centres unmarked) [compound 12, 6-methyl-2-(2-phenyl-1H-indol-3-yl)-2,4-dihydro-1H-benzo[d][1,3]oxazine] |  | 
